The target of assay [1] is T1, human progesterone receptor-B (Homo sapiens, UniProt P06401).
T1 construct: expressed in transfected cells; host or cells: Chinese hamster ovary (CHO) cells, line CHO-PRB-pMMTV-LUC 1E2-A2
T1 sequence (P06401 1-933): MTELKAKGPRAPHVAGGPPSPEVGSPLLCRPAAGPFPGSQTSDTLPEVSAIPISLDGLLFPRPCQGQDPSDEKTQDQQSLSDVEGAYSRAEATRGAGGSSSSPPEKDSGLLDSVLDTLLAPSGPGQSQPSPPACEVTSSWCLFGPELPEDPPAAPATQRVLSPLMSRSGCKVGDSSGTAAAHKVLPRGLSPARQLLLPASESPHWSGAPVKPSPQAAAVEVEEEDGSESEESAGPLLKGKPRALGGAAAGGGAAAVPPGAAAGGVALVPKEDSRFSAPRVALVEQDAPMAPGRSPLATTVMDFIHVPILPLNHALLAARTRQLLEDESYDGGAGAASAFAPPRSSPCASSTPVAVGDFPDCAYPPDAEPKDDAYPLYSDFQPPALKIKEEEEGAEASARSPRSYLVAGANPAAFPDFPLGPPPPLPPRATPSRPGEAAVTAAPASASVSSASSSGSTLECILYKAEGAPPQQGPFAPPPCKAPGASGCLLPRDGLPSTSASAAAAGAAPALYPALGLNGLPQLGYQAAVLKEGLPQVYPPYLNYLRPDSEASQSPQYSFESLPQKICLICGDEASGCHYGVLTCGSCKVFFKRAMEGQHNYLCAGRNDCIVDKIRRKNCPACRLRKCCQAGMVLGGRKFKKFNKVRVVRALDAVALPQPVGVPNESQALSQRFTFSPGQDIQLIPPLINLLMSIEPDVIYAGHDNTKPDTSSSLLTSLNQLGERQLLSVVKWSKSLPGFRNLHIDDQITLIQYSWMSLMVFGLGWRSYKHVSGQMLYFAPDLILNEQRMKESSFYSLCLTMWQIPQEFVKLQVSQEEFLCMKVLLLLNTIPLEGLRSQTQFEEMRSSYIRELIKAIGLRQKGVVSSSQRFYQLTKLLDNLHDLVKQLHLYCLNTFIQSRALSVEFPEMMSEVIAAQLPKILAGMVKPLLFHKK
Description: Progesterone receptor-B transactivation assay, antiprogestagenic activity (inhibition of luciferase transactivation induced by Org 2058). It is filed as cell-based. The following applies: in the presence of 1 nM (16α)-16-ethyl-21-hydroxy-19-norpregn-4-ene-3,20-dione (Org 2058); read-out: Anti-progestagenic activity EC50. The procedure: (§1) The (anti-)progestagenic activity of a compound of the invention (EC 50 and intrinsic activity) was determined in an in vitro bioassay of Chinese hamster ovary (CHO) cells stably transfected with the human progesterone receptor-B expression plasmid and with a reporter plasmid in which the MMTV-promoter is linked to the luciferase reporter gene. […] The cells were cultured with charcoal-treated supplemented defined bovine calf serum from Hyclone (Utah, USA) in Dulbecco's Modified Eagles Medium/Nutrient Mixture F-12 (DMEM/HAM F12 in ratio 1:1) from Gibco (Paisley, UK).

Assay [2] concerns the target T1, human progesterone receptor-B. In words: Progesterone receptor-B transactivation assay, progestagenic (agonist) activity, CHO-PRB-pMMTV-LUC 1E2-A2 cells. It is filed as cell-based. As to conditions: CHO cells stably transfected with human progesterone receptor-B and MMTV-luciferase reporter; read-out: Progestagenic activity EC50. How it is done:
as §1
A general note: Reporter assays use an easily measured gene product as a stand-in for the process of interest.

Some results are limits rather than exact numbers.

Regarding `O=C(N[C@H]1CCCN2c3cc(Cl)c(Cl)cc3Oc3ccccc3[C@H]12)C(F)(F)F` (relative stereo) [Example 38A, trans-N-(7,8-Dichloro-2,3,4,14b-tetrahydro-1H-dibenzo[b,f]pyrido[1,2-d][1,4]oxazepin-1-yl)-2,2,2-trifluoroacetamide], the EC50 (usually the midpoint of the concentration-response curve) is 0.1 to 10 µM in assay [1] and 0.01 to 0.1 µM in assay [2].
As for `COCCN[C@H]1CCCN2c3cc(Cl)ccc3Oc3ccccc3[C@H]12` (relative stereo) [Example 48, trans-7-Chloro-2,3,4,14b-tetrahydro-N-(2-methoxyethyl)-1H-dibenzo[b,f]pyrido[1,2-d][1,4]oxazepine-1-amine], the EC50 in assay [1] was in the range of 0.01 to 0.1 µM; in assay [2], 0.1 to 10 µM.
Taken in the same sequence, the figures for `CC(=O)N[C@H]1CCCN2c3cc(Cl)ccc3Oc3ccccc3[C@H]12` (relative stereo) [Example 10, trans-N-(7-Chloro-2,3,4,14b-tetrahydro-1H-dibenzo[b,f]pyrido[1,2-d][1,4]oxazepin1-yl)acetamide] were 0.1 to 10 µM and 0.1 to 10 µM.
As for `CC(=S)N[C@H]1CCCN2c3cc(Cl)ccc3Oc3ccccc3[C@H]12` (relative stereo) [Example 21], the EC50 was 0.1 to 10 µM in assay [1] and 0.01 to 0.1 µM in assay [2].
Taken in the same sequence, the figures for `O=C(N[C@H]1CCCN2c3cc(F)ccc3Oc3ccccc3[C@H]12)C(F)(F)F` (relative stereo) [Example 5, trans-2,2,2-Trifluoro-N-(7-fluoro-2,3,4,14b-tetrahydro-1H-dibenzo[b,f]pyrido[1,2-d][1,4]oxazepin-1-yl)acetamide] were 0.1 to 10 µM and 0.1 to 10 µM.
The like results for `O=C(NC1CCCN2c3cc(Cl)ccc3Oc3ccccc3C12)C(F)F` (stereo not drawn) [13 (1S14bR isomer)] were, in that order, less than 0.01 µM and less than 0.01 µM.
For the molecule `O=C(N[C@H]1CCCN2c3cc(Cl)ccc3Cc3ccccc3[C@H]12)C(F)(F)F` (relative stereo) [Example 8, trans-N-(7-Chloro-1,2,3,4,10,14b-hexahydrodibenzo[c,f]pyrido[1,2-a]azepin-1-yl)-2,2,2-trifluoroacetamide], the EC50 in assay [1] is 0.01 to 0.1 µM; in assay [2] it was less than 0.01 µM.
For `CC(C)(C)OC(=O)CN[C@H]1CCCN2c3cc(Cl)ccc3Sc3ccccc3[C@H]12` (relative stereo) [Example 49, 1,1-Dimetylethyl trans-2-[(7-chloro-2,3,4,14b-tetrahydro-1H-dibenzo[b,f]pyrido[1,2-d][1,4]thiazepin-1-yl)amino]acetate], the EC50 was 0.01 to 0.1 µM in assay [1] and 0.1 to 10 µM in assay [2].
The like results for `N=C(N[C@H]1CCCN2c3cc(Cl)ccc3Oc3ccccc3[C@H]12)C(F)(F)F` (relative stereo) [Example 29, trans-N-(7-Chloro-2,3,4,14b-tetrahydro-1H-dibenzo[b,f]pyrido[1,2-d][1,4]oxazepin-1-yl)-2,2,2-trifluoroacetimidamide] were, in that order, 0.01 to 0.1 µM and 0.01 to 0.1 µM.

These data come from patent US7737136B2 (N.V. Organon, priority 2002, dated 2010).
